The values below come from ChEMBL document CHEMBL5104227, “Synthesis and evaluation of radiolabeled porphyrin derivatives for cancer diagnoses and their nonradioactive counterparts for photodynamic therapy” (RSC Med Chem, 2022).

One may read the logD as the decadic logarithm of the distribution of all forms, ionised or not, between an organic phase and buffer at a given pH. A lower logD goes with lower lipophilicity. Usually IC50 stands for the concentration that gives 50% inhibition.

Structures are written as SMILES. The source made the active and inactive calls. The calls are words filed in the database; no cut-off is given here.

Data set [1] is described as follows: Biodistribution in Tumor/muscle of BALB/c mouse xenografted with […] Colon 26 cells at 37 kBq, iv measured at 48 hrs by auto-well gamma counter analysis. To be noted: in vivo. The data set is classed as ADME, organism-based. For orientation: In xenograft studies the graft and the host belong to different species.
The nature of data set [2]: Drug uptake in Tumor of BALB/c mouse xenografted with […] Colon 26 cells at 37 kBq, iv measured at 48 hrs by auto-well gamma counter analysis. The data set is classed as ADME, organism-based, Neoplasm. To be noted: in vivo.
Data set [3] can be described thus: Biodistribution in Tumor/blood of BALB/c mouse xenografted with […] Colon 26 cells at 37 kBq, iv by auto-well gamma counter analysis. The data set is classed as ADME, organism-based. The following applies: in vivo, 96 h, TDE = time-dependent effect.
Data set [4] is described as follows: Octanol-water partition coefficient, logP of the compound at pH 7.4 incubated for 10 mins by shake-flask method. The data set is classed as physicochemical.
Data set [5] can be described thus: Biodistribution in lung of BALB/c mouse xenografted with […] Colon 26 cells at 37 kBq, iv measured upto 96 hrs by auto-well gamma counter analysis. It is filed as ADME, organism-based. The following applies: in vivo.
The nature of data set [6]: Drug uptake in […] Colon 26 cells measured per mg of protein after 3 hrs by auto-well gamma counter analysis. The data set is classed as ADME, cell-based. To be noted: mouse, colon 26, 3 h.
A short description of data set [7]: Toxicity in BALB/c mouse xenografted with […] Colon 26 cells assessed as weight loss at 13.6 umol/kg, iv pretreated for 24 hrs followed by 30 mins irradiation with 50 W LED light and measured upto 7 days. The data set is classed as organism-based. To be noted: in vivo, 168 h, dose 13.6 µmol/kg, time < 7 day.
The nature of data set [8]: Biodistribution in spleen of BALB/c mouse xenografted with […] Colon 26 cells at 37 kBq, iv measured upto 96 hrs by auto-well gamma counter analysis. The data set is classed as ADME, organism-based. To be noted: in vivo.
A short description of data set [9]: Biodistribution in liver of BALB/c mouse xenografted with […] Colon 26 cells at 37 kBq, iv measured upto 96 hrs by auto-well gamma counter analysis. It is filed as ADME, organism-based. The following applies: in vivo.
For data set [10], the system named is Colon 26. Put plainly: Photodynamic therapeutic activity against […] Colon 26 cells /c xenografted in BALB/c mouse assessed as tumor growth inhibition at 13.6 umol/kg, iv pretreated for 24 hrs followed by 30 mins irradiation with 50 W LED light and measured upto 7 days. The following applies: dose 13.6 µmol/kg, time <= 7.0 day, tested as the 125I-labelled form. The data set is classed as functional, organism-based.

Data set [11] is described as follows: Induction of singlet oxygen production in DMSO assessed as singlet oxygen quantum yield by measuring the photooxidation of 9,10-dimethylanthracene at 5 uM irradiated with 50 W LED light. The data set is classed as functional.
Data set [12] has as its system Colon 26. Description: Dark toxicity against […] Colon 26 cells assessed as inhibition of cell growth incubated for 24 hrs by MTT assay. It is filed as functional, cell-based. To be noted: Mus musculus, Colon 26, 24 h. A general note: Formazan colour is commonly taken as a measure of viable cells.
In data set [13] the test system is Colon 26. Put plainly: Phototoxicity against […] Colon 26 cells assessed as inhibition of cell growth preincubated for 24 hrs followed by compound washout with replacement of fresh medium and irradiation with 50 W LED light by MTT assay. The data set is classed as functional, cell-based. The following applies: Mus musculus, Colon 26, light or radiation study.

Take `Oc1ccc(-c2c3nc(c(-c4ccccc4)c4ccc([nH]4)c(-c4ccccc4)c4nc(c(-c5ccccc5)c5ccc2[nH]5)C=C4)C=C3)cc1[125I]`: the Drug uptake result is recorded as “Active” in [1]; 18 % ID/g in [2]; “Tde” in [3]; “Active” in [5]; 54% in [6]; “Active” in data set [8]. Moreover, the Drug uptake result in data set [9] is “Active”. The molecule further gave a logD at 10 min in data set [4] of 2.96. Besides, the Activity result in [7] is reported as “Non-Toxic”.
On to `O=C(N[C@@H](Cc1ccc(O)c(I)c1)C(=O)O)c1ccc(-c2c3nc(c(-c4ccccc4)c4ccc([nH]4)c(-c4ccccc4)c4nc(c(-c5ccccc5)c5ccc2[nH]5)C=C4)C=C3)cc1`, for which the result with Colon 26 [10] was Active. In addition, the Activity in [11] turned out to be 0.51. Besides, the IC50 was more than 100 µM with Colon 26 [12] and 5.28 µM in the data set with Colon 26 [13].
With `O=c1[nH]cc(F)c(=O)[nH]1` [FLUOROURACIL], the IC50 in the data set with Colon 26 [12] came out at 3.87 µM; in the data set with Colon 26 [13] it was 4.1 µM.
Regarding `O=C(N[C@@H](Cc1ccc(O)c([125I])c1)C(=O)O)c1ccc(-c2c3nc(c(-c4ccccc4)c4ccc([nH]4)c(-c4ccccc4)c4nc(c(-c5ccccc5)c5ccc2[nH]5)C=C4)C=C3)cc1`, the Drug uptake result in data set [1] is “Active”; in data set [2] it was 8.7 % ID/g; in data set [3], “Tde”; in [5], “Active”; in [6], 52.9%; in data set [8], “Active”. Further, the Drug uptake entry in [9] is recorded as “Active”. The pH-dependent lipophilicity (logD) at 10 min in [4] is 2.55. Further, the Activity result in data set [7] is “Non-Toxic”.
Turning to `C1=Cc2nc1c(-c1ccccc1)c1ccc([nH]1)c(-c1ccccc1)c1nc(c(-c3ccccc3)c3ccc([nH]3)c2-c2ccccc2)C=C1`, the Activity in data set [11] came out at 0.52.
For `Oc1ccc(-c2c3nc(c(-c4ccccc4)c4ccc([nH]4)c(-c4ccccc4)c4nc(c(-c5ccccc5)c5ccc2[nH]5)C=C4)C=C3)cc1I`, the outcome in the data set with Colon 26 [10] was Active. In addition, in data set [11], the Activity stood at 0.65. Moreover, the IC50 in the data set on Colon 26 [12] was more than 50 µM; in the data set on Colon 26 [13], 8.77 µM.
